Experiments:
[1] = biological target: T1, GDP-KRAS G12D mutant protein (Homo sapiens, UniProt P01116, G12D); experiment: Differential scanning fluorimetry (DSF) binding affinity to GDP-KRAS G12D mutant protein; conditions: DSF thermal shift, 10 μM compound, 4 μg KRAS protein
T1 construct: purchased Daegu Gyeongbuk Medical Innovation Foundation (DGMIF), made to order
Procedure: (§1) Test Example 1: Measurement of Binding Affinity to KRAS G12D Mutant Protein The binding affinities of the compounds according to one embodiment of the present application to the KRAS G12D mutant protein were evaluated using differential scanning fluorimetry (DSF). Differential scanning fluorimetry (DSF) is a method used to study the stability of a protein upon binding to a compound. The experiment can be performed using a real-time PCR (RT-PCR) instrument, and is commonly employed as a screening technique for small-molecule compounds targeting specific proteins. As the temperature increases, folded proteins begin to unfold, during which a hydrophobic dye such as SYPRO Orange binds to the exposed hydrophobic regions of the protein, resulting in a measurable increase in fluorescence intensity (maximum absorption at 470 nm and maximum emission at 570 nm). Protein-compound binding is determined by the difference in the melting temperature (Tm) of the protein in the presence of the compound compared to the Tm in the absence of the compound, expressed as ΔTm. The binding affinity to the KRAS G12D mutant protein was measured using the Protein Thermal Shift Dye kit (#4461146, Applied Biosystems). The GDP-KRAS G12D mutant protein and GppNHp-KRAS G12D mutant protein used in the experiment were recombinant proteins synthesized by the Daegu Gyeongbuk Medical Innovation Foundation (DGMIF) upon request. The analysis of binding between the compound and the KRAS G12D mutant protein was performed according to the following reaction recipe: each test sample contained 4 μg of KRAS protein, 10 μM of the compound, and 2×SYPRO Orange dye. For the GDP-KRAS G12D protein samples, the buffer provided with the Protein Thermal Shift Dye kit was used, while for the GppNHp-KRAS G12D protein samples, 50 mM HEPES (pH 7.5) buffer was used. For the protein-compound binding reaction, the compound was added to the KRAS G12D mutant protein and reacted at room temperature for 30 minutes, followed by the addition of 2×SYPRO Orange dye. The temperature was increased to 25° C.-99° C. (0.05° C./s) using QuantStudiol RT-PCR instrument (Applied Biosystems), and fluorescence was measured using a ROX reporter with filters of 580±10 nm (excitation)/623±14 nm (emission). The measurements obtained at a compound concentration of 10 μM were analyzed using the Protein Thermal Shift Software program (version v1.4, Thermo Fisher Scientific), and the ΔTm (° C.) values, which indicate the binding affinity of the compound to the KRAS G12D mutant protein, were calculated. The DSF measurement results for the compounds according to one embodiment of the present application with respect to the KRAS G12D mutant protein are shown in Table 2.

[2] = biological target: T2, GppNHp-KRAS G12D mutant protein (Homo sapiens, UniProt P01116, G12D); experiment: Differential scanning fluorimetry (DSF) binding affinity to GppNHp-KRAS G12D mutant protein; conditions: DSF thermal shift, 10 μM compound, 4 μg KRAS protein, 50 mM HEPES (pH 7.5)
T2 construct: purchased Daegu Gyeongbuk Medical Innovation Foundation (DGMIF), made to order
Procedure: as §1

Compound | GDP-KRAS G12D (ΔTmD, ° C.) [1] | GppNHp-KRAS G12D (ΔTmD, ° C.) [2]
C#Cc1c(F)ccc2cccc(-c3c(F)c4nc(OC[C@@]56CCCN5C[C@H](F)C6)nc(N5C[C@H]6CC[C@@H](C5)N6)c4c4cn(C)nc34)c12 [Example 82, 9-((1 R,5S)-3,8-diazabicyclo[3.2.1]octan-3-yl)-4-(8-ethynyl-7-fluoronaphthalen-1-yl)-5-fluoro-7-(((2R,7aS)-2-fluorotetrahydro-1H-pyrrolizin-7a(5H)-yl)methoxy)-2-methyl-2H-pyrazolo[4,3-n]quinazoline] | 7.52 °C | 3.26 °C
Cn1cc2c(n1)c(-c1cc(O)cc3ccc(F)c(F)c13)cc1nc(OC[C@@]34CCCN3C/C(=C\F)C4)nc(N3C[C@H]4CC[C@@H](C3)N4)c12 [Example 84, 4-(9-((1R,5S)-3,8-diazabicyclo[3.2.1]octan-3-yl)-7-(((S,Z)-2-(fluoromethylene)tetrahydro-1H-pyrrolizin-7a(5H)-yl)methoxy)-2-methyl-2H-pyrazolo[4,3-f]quinazolin-4-yl)-5,6-difluoronaphthalen-2-ol] | 8.13 °C | 4.13 °C
C#Cc1c(F)ccc2cc(O)cc(-c3c(F)c4nc(OC[C@@]56CCCN5CC(=C(F)F)C6)nc(N5CC6CCC(C5)N6)c4c4cn(C)nc34)c12 [Example 91, 4-(9-((1R,5S)-3,8-diazabicyclo[3.2.1]octan-3-yl)-7-(((S)-2-(difluoromethylene)tetrahydro-1H-pyrrolizin-7a(5H)-yl)methoxy)-5-fluoro-2-methyl-2H-pyrazolo[4,3-n]quinazolin-4-yl)-5-ethynyl-6-fluoronaphthalen-2-ol] | −0.16 °C | −0.45 °C
C#Cc1c(F)ccc2cc(O)cc(-c3c(F)c4nc(OC[C@@]56CCCN5CC(=C(F)F)C6)nc(N5CC6CCC(C5)N6)c4c4cn(C)nc34)c12 [Example 92, 4-(9-((1R,5S)-3,8-diazabicyclo[3.2.1]octan-3-yl)-7-(((S)-2-(difluoromethylene)tetrahydro-1H-pyrrolizin-7a(5H)-yl)methoxy)-5-fluoro-2-methyl-2H-pyrazolo[4,3-]quinazolin-4-yl)-5-ethynyl-6-fluoronaphthalen-2-ol] | 17.61 °C | 13.02 °C
C#Cc1c(F)ccc2cc(O)cc(-c3c(F)c4nc(OC[C@@]56CCCN5C[C@H](F)C6)nc(N5[C@@H]6CC[C@H]5CNC6)c4c4cn(C)nc34)c12 [Example 103, 4-(9-((1 R,5S)-3,8-diazabicyclo[3.2.1]octan-8-yl)-5-fluoro-7-(((2R,7aS)-2-fluorotetrahydro-1H-pyrrolizin-7a(5H)-yl)methoxy)-2-methyl-2H-pyrazolo[4,3-n]quinazolin-4-yl)-5-ethynyl-6-fluoronaphthalen-2-ol] | 14.80 °C | 11.59 °C
C#Cc1c(F)ccc2cc(O)cc(-c3cc4nc(OC[C@@]56CCCN5CC(=C(F)F)C6)nc(N5[C@@H]6CC[C@H]5CNC6)c4n4ccnc34)c12 [Example 106, 4-(1-((1 R,5S)-3,8-diazabicyclo[3.2.1]octan-8-yl)-3-(((S)-2-(difluoromethylene)tetrahydro-1H-pyrrolizin-7a(5H)-yl)methoxy)imidazo[1′,2′:1,6]pyrido[3,2-d]pyrimidin-6-yl)-5-ethynyl-6-fluoronaphthalen-2-ol] | 10.21 °C | 6.65 °C
CCc1c(F)ccc2cc(O)cc(-c3cc4nc(OC[C@@]56CCCN5CC(=C(F)F)C6)nc(N5[C@@H]6CC[C@H]5CNC6)c4n4ccnc34)c12 [Example 107, 4-(1-((1 R,5S)-3,8-diazabicyclo[3.2.1]octan-8-yl)-3-(((S)-2-(difluoromethylene)tetrahydro-1H-pyrrolizin-7a(5H)-yl)methoxy)imidazo[1′,2′:1,6]pyrido[3,2-d]pyrimidin-6-yl)-5-ethyl-6-fluoronaphthalen-2-ol] | 8.91 °C | 4.32 °C
C#Cc1c(F)ccc2cc(N)cc(-c3cc4nc(OC[C@@]56CCCN5CC(=C(F)F)C6)nc(N5[C@@H]6CC[C@H]5CNC6)c4n4ccnc34)c12 [Example 108, 4-(1-((1 R,5S)-3,8-diazabicyclo[3.2.1]octan-8-yl)-3-(((S)-2-(difluoromethylene)tetrahydro-1H-pyrrolizin-7a(5H)-yl)methoxy)imidazo[1′,2′:1,6]pyrido[3,2-d]pyrimidin-6-yl)-5-ethynyl-6-fluoronaphthalen-2-amine] | 8.47 °C | 5.36 °C
CCc1c(F)ccc2cc(O)cc(-c3cc4nc(OC[C@@]56CCCN5CC(=C(F)F)C6)nc(N5C[C@H]6CC[C@@H](C5)N6)c4n4ccnc34)c12 [Example 109, 4-(1-((1 R,5S)-3,8-diazabicyclo[3.2.1]octan-3-yl)-3-(((S)-2-(difluoromethylene)tetrahydro-1H-pyrrolizin-7a(5H)-yl)methoxy)imidazo[1′,2′:1,6]pyrido[3,2-d]pyrimidin-6-yl)-5-ethyl-6-fluoronaphthalen-2-ol] | 10.51 °C | 4.28 °C

Source: patent US20260209249A1, “NOVEL TRICYCLIC COMPOUND AS KRAS G12D INHIBITOR, AND USE THEREOF” (SK Biopharmaceuticals Co., priority 2022, published 2026)
